Reference: patent US20080138291A1, “Sulfonamide Derivatives Having Carbonic Anhydrase Inhibiting Activity and their Use as Therapeutic and Diagnostic Agents” (UNION LIFE SCIENCES LTD., priority 2005, published 2008)
Read-outs that look alike come from different tables or passages of the source.

Key:
hCA II = hCA II (Homo sapiens, UniProt P00918); assay: CA inhibition, CO2 hydration method, isozyme II; type: biochemical; details: for Ki: human cloned isozyme, CO2 hydration method; for hCA II inhibitors, ranking in the series: discussion of Table 1
hCA IX = hCA IX (Homo sapiens, UniProt Q16790); assay: CA inhibition, CO2 hydration method, isozyme IX (catalytic domain); type: biochemical
hCA I = hCA I (Homo sapiens, UniProt P00915); assay: CA inhibition, CO2 hydration method, isozyme I; type: biochemical
human red cells [1] = assay: Ex vivo penetration through red blood cell membranes; details: for [sulfonamide] in red blood cells, t = 30 min, HPLC / [sulfonamide] in red blood cells, t = 30 min, ES / [sulfonamide] in red blood cells, t = 60 min, HPLC / [sulfonamide] in red blood cells, t = 60 min, ES / [sulfonamide] in red blood cells, t = 48 h, HPLC / [sulfonamide] in red blood cells, t = 48 h, ES: 3 mM sulfonamide in 5 mM Tris buffer pH 7.4; for [sulfonamide] in red blood cells, t = 30 min, HPLC / [sulfonamide] in red blood cells, t = 60 min, HPLC / [sulfonamide] in red blood cells, t = 48 h, HPLC: HPLC method; for [sulfonamide] in red blood cells, t = 30 min, ES / [sulfonamide] in red blood cells, t = 60 min, ES / [sulfonamide] in red blood cells, t = 48 h, ES: electronic spectroscopy; for membrane permeability at exposure times of 30-60 min / membrane permeability after 48 hours of exposure: human RBCs, pH 7.4
[2] = tested on: HeLa cervical carcinoma cells; assay: Binding of fluorescent sulfonamide to HeLa cells; details: hypoxic versus normoxic cells
Protocol: (§2) Sulfonamide treatment of cells. The sulfonamides were dissolved in PBS with 20% DMSO at 100 mM concentration and diluted in a culture medium to a required final concentration just before their addition to cells. Immediately after beginning of the treatment with sulfonamides, the cells were transferred to hypoxia and incubated for 48 h. Parallel cultures were maintained for the same time period in normoxia.

[3] = tested on: SiHa cervical carcinoma cells; assay: Effect on extracellular pH of SiHa cells in hypoxia; type: cell-based; details: hypoxia 48 h, 1 mM
[4] = tested on: HeLa cervical carcinoma cells; assay: Effect on extracellular pH of HeLa cells in hypoxia; type: cell-based; details: hypoxia 48 h, 1 mM
Protocol: Cell cultures. MDCK and HeLa cells as well as their transfected derivatives were grown in DMEM with 10% FCS (BioWhittaker, Verviers, Belgium) buffered with 22.4 mM bicarbonate and containing supplements as described before (Svastova, E.; et al.; Exp. Cell. Res. 2003, 290, 332-345) To maintain standard experimental conditions, the cells were always plated in 3 ml of culture medium at a density of 0.8−1×10^6 per 6 cm dish 24 h before the transfer to hypoxia (2% O2 and 5% CO2 balanced with N2) generated in a Napco 7000 incubator, where they were grown for additional 48 h (if not stated otherwise). Parallel normoxic dishes were incubated in air with 5% CO2.
(§1) Sulfonamide treatment of cells. […] Images were acquired by Nikon Coolpix 990.
Mean differences in the pH values determined in the treated versus control dishes are shown on the histogram with indicated standard deviations. The experiment was repeated three times using at least three parallel dishes for each sample.

[5] = tested on: SiHa cervical carcinoma cells; assay: Binding of fluorescent sulfonamide to SiHa cells; details: hypoxic versus normoxic cells
Protocol: as §2

MDCK-CA IX cells = assay: Binding of fluorescent sulfonamide to MDCK-CA IX cells (fluorescence microscopy); type: cell-based, canine; details: CA IX-positive and mock-transfected MDCK cells, normoxia or hypoxia 48 h
Description: as §1

human red cells [6] = tested on: human red cells
hCA XII = hCA XII (Homo sapiens, UniProt O43570); assay: CA inhibition, CO2 hydration method, isozyme XII (catalytic domain); type: biochemical; details: Table 2, catalytic domain of human cloned isozyme
[7] = Table 1, catalytic domain of human cloned isozyme
[8] = Table 1, human cloned isozyme, read-out: KI hCA I
[9] = Table 2, catalytic domain of human cloned isozyme
[10] = Table 2, human cloned isozyme, read-out: KI hCA I

Chain of hCA I (P00915 whole entry): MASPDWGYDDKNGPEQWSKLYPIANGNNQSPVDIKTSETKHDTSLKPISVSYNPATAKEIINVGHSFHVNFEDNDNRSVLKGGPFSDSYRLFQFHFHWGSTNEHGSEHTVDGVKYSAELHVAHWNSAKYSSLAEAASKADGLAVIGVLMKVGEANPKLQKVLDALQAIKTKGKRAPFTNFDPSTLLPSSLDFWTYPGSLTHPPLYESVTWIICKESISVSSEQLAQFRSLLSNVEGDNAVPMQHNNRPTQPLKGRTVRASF
Chain of hCA XII (O43570 30-289 limits assumed): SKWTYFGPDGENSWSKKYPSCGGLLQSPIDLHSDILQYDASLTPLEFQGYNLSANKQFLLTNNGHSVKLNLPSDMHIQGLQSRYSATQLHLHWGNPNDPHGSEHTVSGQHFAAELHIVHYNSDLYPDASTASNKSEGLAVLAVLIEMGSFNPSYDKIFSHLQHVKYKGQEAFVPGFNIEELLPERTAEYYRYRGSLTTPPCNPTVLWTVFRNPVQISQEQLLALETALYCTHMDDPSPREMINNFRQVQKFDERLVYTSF

| Structure (SMILES) | Ki (hCA II; Table 1) [nM] | Ki (hCA IX; [7]) [nM] | Ki (hCA I; [8]) [nM] | Ki (hCA XII) [nM] | Ki (hCA II; Table 2) [nM] | Ki (hCA IX; [9]) [nM] | Ki (hCA I; [10]) [nM] | other results |
| --- | --- | --- | --- | --- | --- | --- | --- | --- |
| NS(=O)(=O)c1ccc(NC(=S)Nc2ccc(-c3c4ccc(=O)cc-4oc4cc(O)ccc34)c(C(=O)O)c2)cc1 [5a, (4-Sulfamoylphenyl)thioureido fluorescein] | 41 | 29 | 1500 | – | – | – | – | – |
| NS(=O)(=O)c1ccc(CNC(=S)Nc2ccc(-c3c4ccc(=O)cc-4oc4cc(O)ccc34)c(C(=O)O)c2)cc1 [5b, (4-sulfamoylphenylmethyl)thioureido fluorescein] | – | 26 | 1450 | – | – | – | – | [sulfonamide] in red blood cells, t = 30 min, HPLC (human red cells [1]): 0.5 µM; [sulfonamide] in red blood cells, t = 30 min, ES (human red cells [1]): 0.8 µM; [sulfonamide] in red blood cells, t = 60 min, HPLC (human red cells [1]): 0.8 µM; [sulfonamide] in red blood cells, t = 60 min, ES (human red cells [1]): 0.8 µM; [sulfonamide] in red blood cells, t = 48 h, HPLC (human red cells [1]): 10.1 µM; [sulfonamide] in red blood cells, t = 48 h, ES (human red cells [1]): 2.5 µM; membrane permeability at exposure times of 30-60 min (human red cells [1]): decreased membrane permeability; membrane permeability after 48 hours of exposure (human red cells [1]): slightly more permeant |
| NS(=O)(=O)c1ccc(CCNC(=S)Nc2ccc(-c3c4ccc(=O)cc-4oc4cc(O)ccc34)c(C(=O)O)c2)cc1 [5c, (4-Sulfamoylphenylethyl)thioureido fluorescein] | – | – | – | – | – | – | – | binding to HeLa cells [2]: binds to hypoxic HeLa and SiHa cells; acidosis (pHe) of hypoxic SiHa cells [3]: reduced; [sulfonamide] in red blood cells, t = 30 min, HPLC (human red cells [1]): 0.4 µM; [sulfonamide] in red blood cells, t = 30 min, ES (human red cells [1]): 0.9 µM; [sulfonamide] in red blood cells, t = 60 min, HPLC (human red cells [1]): 0.6 µM; [sulfonamide] in red blood cells, t = 60 min, ES (human red cells [1]): 1.2 µM; [sulfonamide] in red blood cells, t = 48 h, HPLC (human red cells [1]): 10.4 µM; [sulfonamide] in red blood cells, t = 48 h, ES (human red cells [1]): 3.0 µM; membrane permeability at exposure times of 30-60 min (human red cells [1]): decreased membrane permeability; membrane permeability after 48 hours of exposure (human red cells [1]): slightly more permeant; Ki (hCA I; KI hCA I, Table 1, human cloned isozyme): 1300 nM; acidosis (pHe) of hypoxic HeLa cells [4]: reduced; binding to SiHa cells [5]: binds to hypoxic HeLa and SiHa cells; fluorescence signal (binding to cells) (MDCK-CA IX cells): detected only in the hypoxic MDCK-CA IX cells |
| NS(=O)(=O)c1ccc(NNC(=S)Nc2ccc(-c3c4ccc(=O)cc-4oc4cc(O)ccc34)c(C(=O)O)c2)cc1 [5d] | 40 | 25 | 1200 | – | – | – | – | – |
| NS(=O)(=O)c1ccc(NC(=S)Nc2ccc(-c3c4ccc(=O)cc-4oc4cc(O)ccc34)c(C(=O)O)c2)c(F)c1 [5e] | – | 30 | 980 | – | – | – | – | – |
| NS(=O)(=O)c1ccc(NC(=S)Nc2ccc(-c3c4ccc(=O)cc-4oc4cc(O)ccc34)c(C(=O)O)c2)c(Cl)c1 [5f] | 52 | 32 | 950 | – | – | – | – | – |
| NS(=O)(=O)c1ccc(NC(=S)Nc2ccc(-c3c4ccc(=O)cc-4oc4cc(O)ccc34)c(C(=O)O)c2)c(Br)c1 [5g] | 43 | 35 | 1100 | – | – | – | – | – |
| NS(=O)(=O)c1ccc(NC(=S)Nc2ccc(-c3c4ccc(=O)cc-4oc4cc(O)ccc34)c(C(=O)O)c2)c(I)c1 [5h, (2-Iodo-4-sulfamoylphenyl)thioureido fluorescein] | 40 | 31 | 1070 | – | – | – | – | – |
| NS(=O)(=O)c1cccc(NC(=S)Nc2ccc(-c3c4ccc(=O)cc-4oc4cc(O)ccc34)c(C(=O)O)c2)c1 [5i, (3-Sulfamoylphenyl)thioureido fluorescein] | 52 | 34 | 1400 | – | – | – | – | – |
| NS(=O)(=O)c1ccc(CNS(=O)(=O)c2ccc(NC(=S)Nc3ccc(-c4c5ccc(=O)cc-5oc5cc(O)ccc45)c(C(=O)O)c3)cc2)cc1 [5j] | 34 | 20 | 630 | – | – | – | – | hCA II inhibitors, ranking in the series (hCA II): best hCA II inhibitors in this series |
| NS(=O)(=O)c1nnc(NS(=O)(=O)c2ccc(NC(=S)Nc3ccc(-c4c5ccc(=O)cc-5oc5cc(O)ccc45)c(C(=O)O)c3)cc2)s1 [5k, [4-(5-Sulfamoyl-[1,3,4]thiadiazol-2-ylsulfamoyl)-phenyl]-thioureido fluorescein] | 27 | 16 | 480 | – | – | – | – | hCA II inhibitors, ranking in the series (hCA II): best hCA II inhibitors in this series |
| CC(=O)/N=c1/sc(S(N)(=O)=O)nn1C [MZA, methazolamide, reference compound] | – | – | – | – | – | – | – | penetration through red blood cell membranes (human red cells [6]): easily penetrate through biological membranes; [sulfonamide] in red blood cells, t = 30 min, HPLC (human red cells [1]): 170 µM; [sulfonamide] in red blood cells, t = 30 min, ES (human red cells [1]): 169 µM; [sulfonamide] in red blood cells, t = 60 min, HPLC (human red cells [1]): 168 µM; [sulfonamide] in red blood cells, t = 60 min, ES (human red cells [1]): 168 µM; [sulfonamide] in red blood cells, t = 48 h, HPLC (human red cells [1]): 167 µM; [sulfonamide] in red blood cells, t = 48 h, ES (human red cells [1]): 169 µM |
| NS(=O)(=O)c1ccc(NC(=O)Nc2ccc(-c3c4ccc(=O)cc-4oc4cc(O)ccc34)c(C(=O)O)c2)cc1 [compound 1, (4-Sulfamoylphenyl)ureido fluorescein] | – | – | – | 11 | 36 | 21 | 1700 | – |
| NS(=O)(=O)c1cccc(NC(=O)Nc2ccc(-c3c4ccc(=O)cc-4oc4cc(O)ccc34)c(C(=O)O)c2)c1 [compound 2, (3-Sulfamoylphenyl)ureido fluorescein] | – | – | – | 9 | 43 | 30 | 1800 | – |
| NS(=O)(=O)c1ccccc1NC(=O)Nc1ccc(-c2c3ccc(=O)cc-3oc3cc(O)ccc23)c(C(=O)O)c1 [compound 3, (2-Sulfamoylphenyl)ureido fluorescein] | – | – | – | 18 | 76 | 46 | 1900 | – |
| NS(=O)(=O)c1ccc(CNC(=O)Nc2ccc(-c3c4ccc(=O)cc-4oc4cc(O)ccc34)c(C(=O)O)c2)cc1 [compound 4, (4-Sulfamoylphenylmethyl)ureido fluorescein] | – | – | – | 8 | 40 | 21 | 1560 | – |
| NS(=O)(=O)c1ccc(CCNC(=O)Nc2ccc(-c3c4ccc(=O)cc-4oc4cc(O)ccc34)c(C(=O)O)c2)cc1 [compound 5, (4-Sulfamoylphenylethyl)ureido fluorescein] | – | – | – | 7 | 35 | – | 1340 | – |
| NS(=O)(=O)c1ccc(NC(=O)Nc2ccc(-c3c4ccc(=O)cc-4oc4cc(O)ccc34)c(C(=O)O)c2)c(F)c1 [compound 6, (2-Fluoro-4-sulfamoylphenyl)ureido fluorescein] | – | – | – | 10 | 40 | 21 | 1200 | – |
| NS(=O)(=O)c1ccc(NC(=O)Nc2ccc(-c3c4ccc(=O)cc-4oc4cc(O)ccc34)c(C(=O)O)c2)c(Cl)c1 [compound 7] | – | – | – | 12 | 43 | 22 | 1330 | – |
| NS(=O)(=O)c1ccc(NC(=O)Nc2ccc(-c3c4ccc(=O)cc-4oc4cc(O)ccc34)c(C(=O)O)c2)c(I)c1 [compound 9, (2-Iodo-4-sulfamoylphenyl)ureido fluorescein] | – | – | – | 7 | 43 | 21 | 1350 | – |
| NS(=O)(=O)c1ccc(CNS(=O)(=O)c2ccc(NC(=O)Nc3ccc(-c4c5ccc(=O)cc-5oc5cc(O)ccc45)c(C(=O)O)c3)cc2)cc1 [compound 10, [4-(4-Sulfamoyl-benzylsulfamoyl)-phenyl]-ureido fluorescein] | – | – | – | 5 | 14 | 7 | 520 | – |
| NS(=O)(=O)c1nnc(NS(=O)(=O)c2ccc(NC(=O)Nc3ccc(-c4c5ccc(=O)cc-5oc5cc(O)ccc45)c(C(=O)O)c3)cc2)s1 [compound 11, [4-(5-Sulfamoyl-[1,3,4]thiadiazol-2-ylsulfamoyl)-phenyl]-ureido fluorescein] | – | – | – | 3 | 13 | 6 | 410 | – |
